Data: ChEMBL document CHEMBL1201862, “PubChem BioAssay data set” (2004)
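Dose response: 5 concentrations. Exposure: 48 h. Format: 96-well plates. Endpoint: linear interpolation; highest concentration if not reached. At the GI50, growth is halved.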 The source made the active and inactive calls. Rule as the data show it: active = GI50 up to about 1.1 µM and inactive = higher.

How the values were obtained:
Test in all cases: NCI anticancer screen, dose series, 48 h
[1] = tested on: PC-3
[2] = tested on: NCI-H226
[3] = tested on: CAKI-1
[4] = tested on: RXF 393
[5] = tested on: HT-29
[6] = tested on: SW-620
[7] = tested on: SK-MEL-2
[8] = tested on: SNB-19
[9] = tested on: UACC-62
[10] = tested on: T47D
[11] = tested on: SF-295
[12] = tested on: Malme-3M
[13] = tested on: HOP-92
[14] = tested on: MDA-N
[15] = tested on: 786-0
[16] = tested on: ACHN
[17] = tested on: NCI-H522
[18] = tested on: HL-60
[19] = tested on: A549
[20] = tested on: MDA-MB-231

Measured: GI50

Nc1nc(O)c2ncn([C@H]3CC[C@@H](CO)O3)c2n1
inactive: [1] > 100 µM | [2] > 100 µM | [3] > 100 µM | [4] > 100 µM | [5] > 100 µM | [6] > 100 µM | [7] > 100 µM | [8] > 100 µM | [9] > 100 µM | [10] > 100 µM | [11] > 100 µM | [12] > 100 µM | [13] > 100 µM | [14] > 100 µM

CCOC(=O)C1=C(NC)OCC1=O
inactive: [15] > 100 µM | [2] > 100 µM | [16] > 100 µM | [3] > 100 µM | [4] > 100 µM | [5] > 100 µM | [6] > 100 µM | [7] > 100 µM | [8] > 100 µM | [9] > 100 µM | [11] > 100 µM | [12] > 100 µM | [17] > 100 µM | [18] > 100 µM | [13] > 100 µM | [19] > 100 µM

O=NN1CCCS1(=O)=O
inactive: [1] > 100 µM | [15] > 100 µM | [2] > 100 µM | [16] > 100 µM | [3] > 100 µM | [4] > 100 µM | [5] > 100 µM | [6] > 100 µM | [8] > 100 µM | [9] > 100 µM | [10] > 100 µM | [11] > 100 µM | [12] > 100 µM | [18] > 100 µM | [20] > 100 µM | [19] > 100 µM

CO/N=C(\C(=O)O/C(=N/C1CCCCC1)NC1CCCCC1)c1csc(NC(c2ccccc2)(c2ccccc2)c2ccccc2)n1
inactive: [1] > 10 µM | [15] > 10 µM | [2] > 10 µM | [16] > 10 µM | [3] > 10 µM | [4] 5.05 µM | [5] > 10 µM | [6] > 10 µM | [7] > 10 µM | [8] > 10 µM | [10] > 10 µM | [11] > 10 µM | [12] > 10 µM | [17] > 10 µM | [18] > 10 µM | [13] > 10 µM | [14] > 10 µM | [19] > 10 µM

Cc1cc(S(=O)(=O)Nc2nc(N)nc(N(C)C)n2)c(SCC(=O)O)cc1Cl
inactive: [1] > 10 µM | [15] > 10 µM | [2] > 10 µM | [16] > 10 µM | [3] > 10 µM | [4] > 10 µM | [5] > 10 µM | [6] > 10 µM | [7] > 10 µM | [8] > 10 µM | [10] > 10 µM | [11] > 10 µM | [12] > 10 µM | [17] > 10 µM | [18] > 10 µM | [13] > 10 µM | [14] > 10 µM | [19] > 10 µM

CC(=O)C(CN(C)C)C(c1ccccc1)c1c(O)c2ccccc2oc1=O (stereo not given)
inactive: [15] > 100 µM | [2] > 100 µM | [16] > 100 µM | [3] > 100 µM | [4] > 100 µM | [5] > 100 µM | [6] > 100 µM | [7] > 100 µM | [8] > 100 µM | [9] > 100 µM | [11] > 100 µM | [12] > 100 µM | [17] > 100 µM | [18] > 100 µM | [13] 49.9 µM | [19] > 100 µM

CC#N.O[C@@H]1CCCC[C@@H]1O.O[C@@H]1CCCC[C@@H]1O.[TeH2]
inactive: [15] 34.1 µM | [2] 40.6 µM | [16] 33.2 µM | [3] > 100 µM | [4] 72.3 µM | [5] 33.4 µM | [6] 18.6 µM | [7] 74.3 µM | [8] 33.1 µM | [9] > 100 µM | [11] 17.3 µM | [12] > 100 µM | [17] 37.3 µM | [18] 15.4 µM | [13] 26.1 µM | [19] 45.8 µM

C=C1C(=O)O[C@H]2C[C@@]3(COC(C)=O)C=COC=C(COC(=O)C(C)C)C3CC12 (stereo not given in full)
inactive: [1] 35.3 µM | [15] > 100 µM | [2] > 100 µM | [16] > 100 µM | [3] 65.2 µM | [4] 67.6 µM | [5] > 100 µM | [6] 46.1 µM | [8] > 100 µM | [9] 13.2 µM | [11] > 100 µM | [12] > 100 µM | [17] 60 µM | [18] 23.8 µM | [14] 45.7 µM | [20] 61.9 µM | [19] > 100 µM

CN(C)CC1(Cc2ccccc2)CC/C(=C\c2ccccc2)C1=O (stereo not given)
inactive: [15] 35.1 µM | [2] 92.9 µM | [16] 50.7 µM | [3] 49.1 µM | [4] 35.6 µM | [5] 20.7 µM | [6] 20.8 µM | [7] 50.9 µM | [8] 22.2 µM | [9] 15.1 µM | [11] 62.2 µM | [12] 44 µM | [17] 15.2 µM | [18] 20.4 µM | [13] 51.4 µM | [19] 96.4 µM

CC1=C(C(=O)NCCc2ccccc2)CC(C(=O)NCCc2ccccc2)=C(C)N1
inactive: [1] 37.2 µM | [15] 87.5 µM | [2] > 100 µM | [16] 55.3 µM | [3] > 100 µM | [4] 35.8 µM | [5] 61.1 µM | [6] > 100 µM | [7] > 100 µM | [8] 6.1 µM | [9] > 100 µM | [10] 64.6 µM | [11] > 100 µM | [17] 47.4 µM | [18] 31.7 µM | [13] 49.3 µM | [20] > 100 µM | [19] > 100 µM

O=C(CNC(=O)c1ccccc1)Oc1c(Cl)c(Cl)c(Cl)c(Cl)c1Cl
inactive: [1] 24.7 µM | [15] 50.5 µM | [2] 29 µM | [16] 25.2 µM | [3] 25.8 µM | [4] 39.4 µM | [5] 30.5 µM | [6] 21.6 µM | [7] 21 µM | [8] 44.9 µM | [9] 21.9 µM | [10] 42.6 µM | [11] 33.2 µM | [12] 28.8 µM | [17] 29.6 µM | [18] 24.6 µM | [20] 22.9 µM | [19] 29 µM

C/N=c1\ss/c(=N\C(=S)N(C)C)n1-c1ccccc1
inactive: [15] 38.3 µM | [2] > 100 µM | [16] > 100 µM | [3] > 100 µM | [4] > 48.2 µM | [5] > 31.6 µM | [6] > 100 µM | [7] > 64 µM | [8] > 52.7 µM | [9] > 22.9 µM | [11] > 75.5 µM | [12] > 100 µM | [17] 9.14 µM | [18] > 100 µM | [13] 39.5 µM | [19] > 100 µM

FC(F)(F)c1nc(-c2ccccc2)oc1Sc1oc(-c2ccccc2)nc1C(F)(F)F
inactive: [15] > 100 µM | [2] 45.2 µM | [16] 28.8 µM | [3] 26.8 µM | [4] 24.7 µM | [5] > 100 µM | [6] > 100 µM | [7] > 100 µM | [8] 87.3 µM | [9] > 100 µM | [11] 34.4 µM | [12] > 100 µM | [17] 45.8 µM | [18] > 100 µM | [13] 39.1 µM | [19] > 100 µM

Nc1ccc(S(=O)(=O)C23CC4CC(CC(C4)C2)C3)cc1
inactive: [1] 51.5 µM | [15] > 100 µM | [2] > 100 µM | [16] > 100 µM | [3] > 100 µM | [4] 30.1 µM | [5] > 100 µM | [6] > 100 µM | [7] > 100 µM | [8] > 100 µM | [9] > 100 µM | [10] 34.1 µM | [11] > 100 µM | [12] > 100 µM | [17] > 100 µM | [18] 27.2 µM | [20] > 100 µM | [19] > 100 µM

CN1CCN(CCCN2c3ccccc3Sc3ccc(C(F)(F)F)cc32)CC1
inactive: [1] 4.58 µM | [15] 4.14 µM | [2] 13.2 µM | [16] 10.7 µM | [3] 9.64 µM | [5] 2.35 µM | [7] 4.18 µM | [8] 11.4 µM | [9] 2.06 µM | [10] 6.1 µM | [11] 5.79 µM | [12] 1.45 µM | [18] 4.58 µM | [14] 3.2 µM | [19] 10.2 µM

CC(C)OC(=O)c1cc(NC(=O)C(C)(C)C)c(F)cc1Cl
inactive: [15] > 100 µM | [2] > 100 µM | [16] > 100 µM | [3] > 100 µM | [4] > 100 µM | [5] > 100 µM | [6] > 100 µM | [7] > 100 µM | [8] > 100 µM | [9] > 100 µM | [11] > 100 µM | [12] > 100 µM | [17] > 100 µM | [18] 62.5 µM | [13] > 100 µM | [19] > 100 µM

CC1S(=O)(=O)OCCOS1(=O)=O
inactive: [15] 46.2 µM | [2] > 100 µM | [16] 46.5 µM | [3] 53.3 µM | [4] > 73.5 µM | [5] > 100 µM | [6] > 100 µM | [7] > 100 µM | [8] 39.7 µM | [9] 22.6 µM | [11] 50.4 µM | [12] > 100 µM | [17] > 78 µM | [18] 29.7 µM | [13] > 100 µM | [19] > 95.5 µM
